Among the data in patent publication US10053477B2, “Spirocyclic aryl phosphorus oxide and aryl phosphorus sulfide” (QILU PHARMACEUTICAL CO., LTD., priority 2014, dated 2018) are Tumor volume and IC50 values, retold here.

For assay [1], the system named is LU-01-0015 xenotransplantation (PDX) from lung cancer patients. Kind of assay: In vivo efficacy, LU-01-0015 xenotransplantation (PDX) from lung cancer patients. Details: species or system BALB/c nude mice. The note with it: 25 mg/kg orally everyday. The source says:
BALB/c nude mice, female, 6 to 8 weeks, about 18 to 22 g bodyweight, was kept in a special environment without pathogens, and a single ventilated cage (5 mice per cage). Beddings and water in all the cages were disinfected before use. […] 80 mice were supplied by Shanghai BK Laboratory Animal Co., LTD for study. Each mouse was subcutaneously implanted tumor tissue (20-30 mm^3) at right flank for growth of tumor. When the average tumor volume reached about 250-300 mm^3, the assay started. Test compounds were delivered orally everyday, 25 mg/kg. Tumor size was measured with two-dimensional caliper every 3 days, size was recorded by mm^3, and calculated by the following formula: V=V=0.5a×b2, where a and b are respectively the long diameter and short diameter length of the tumor. The antitumor efficacy was determined by dividing the average increased tumor volume in compound-treated animal by the average increased tumor volume in untreated animal.

The target in assay [2] is T1, EGFR T790M/L858R (Homo sapiens, UniProt P00533, L858R/T790M).
T1 construct: purchased Life technology (Madison, Wis.)
Kind of assay: EGFR T790M/L858R enzymatic inhibition (HTRF). Type of assay: biochemical. The note with it: 20 μM ATP. As to the method: Enzyme: ALK wild-type, ALK C1156Y and ALK L1196M supplied by Carna Biosciences (Japan), EGFR T790M/L858R supplied by Life technology (Madison, Wis.).
HTRF kit: supplied by Cis-Bio International, with Eu-marked TK1 antibody, XL665- and biotin-labelled TK1 polypeptide substrates.
The compound to be tested is diluted at a gradient by 3 times thereby giving 11 gradients starting from […] to 0.017 nM for the final concentration.
10 μl EGFR T790M/L858R enzyme reaction mixture system: 0.08 nM EGFR T790M/L858R, 1 μM biotin-TK1 peptide, 20 μM ATP. Reaction buffer: 50 mM Hepes (pH7.5), 10 mM MgCl2, 0.01 mM NaV3VO4. The reaction plate was white Proxiplate 384-Plus plate (PerkinElmer). Reaction was reacted at room temperature for 60 minutes.
Detecting reaction: 10 μl testing reagent was added to the reaction plate, the final concentration of Antibody was 2 nM, XL665 was 62.5 nM. Incubation was carried out for 60 minutes at room temperature. Detection was by Envision.
On the technique in general: In TR-FRET formats the signal depends on donor and acceptor labels being close together.

The subject of assay [3] is LU-01-0319 Crizotinib resistance model. Kind of assay: In vivo anti-tumor efficacy, Crizotinib resistant LU-01-0319 xenotransplantation (PDX) tumor. On the set-up: species or system BALB/c nude mice. The note with it: 25 mg/Kg orally once a day. The source says:
LU-01-0319 xenotransplantation tumor models initially obtained from clinical sample through surgical resection were implanted into nude mice, which was defined as a batch of P0 (LU-01-0319-P0). The next batch was defined as P1 (LU-01-0319-P1) which was implanted tumors from P0. FP3 was regained from P2, the next batch was defined as FP4 which was implanted tumors from FP3. […] The continuous increasing tumors were defined as LU-01-0319 antitumor models. BALB/c nude mice, female, 6 to 8 weeks, about 18 to 22 g bodyweight, 75 mice were used for study, supplied by Shanghai BK Laboratory Animal Co., LTD. Tumour biopsies (about 30 mm^3) of LU-01-0319R FP6 were implanted subcutaneously on right side of each mouse for growth of tumor. […] Dose of Crizotinib was appropriately varied depending on the tumor size. When average tumor volume reached about ˜500 mm^3, the assay began. Once a day the compounds to be tested were orally administered. Tumor size were measured twice a week with a caliper at two dimensions, and calculated with the following formula: V=0.5a×b2, where a and b are respectively long diameter and short diameter of the tumor. The antitumor efficacy was determined by dividing the average increased tumor volume in compound-treated animal by the average increased tumor volume in untreated animal.

Molecules are shown by their SMILES.

Broadly, the IC50 is the concentration at which inhibition is half-maximal.

T1 sequence (P00533 25-1210 T790M/L858R): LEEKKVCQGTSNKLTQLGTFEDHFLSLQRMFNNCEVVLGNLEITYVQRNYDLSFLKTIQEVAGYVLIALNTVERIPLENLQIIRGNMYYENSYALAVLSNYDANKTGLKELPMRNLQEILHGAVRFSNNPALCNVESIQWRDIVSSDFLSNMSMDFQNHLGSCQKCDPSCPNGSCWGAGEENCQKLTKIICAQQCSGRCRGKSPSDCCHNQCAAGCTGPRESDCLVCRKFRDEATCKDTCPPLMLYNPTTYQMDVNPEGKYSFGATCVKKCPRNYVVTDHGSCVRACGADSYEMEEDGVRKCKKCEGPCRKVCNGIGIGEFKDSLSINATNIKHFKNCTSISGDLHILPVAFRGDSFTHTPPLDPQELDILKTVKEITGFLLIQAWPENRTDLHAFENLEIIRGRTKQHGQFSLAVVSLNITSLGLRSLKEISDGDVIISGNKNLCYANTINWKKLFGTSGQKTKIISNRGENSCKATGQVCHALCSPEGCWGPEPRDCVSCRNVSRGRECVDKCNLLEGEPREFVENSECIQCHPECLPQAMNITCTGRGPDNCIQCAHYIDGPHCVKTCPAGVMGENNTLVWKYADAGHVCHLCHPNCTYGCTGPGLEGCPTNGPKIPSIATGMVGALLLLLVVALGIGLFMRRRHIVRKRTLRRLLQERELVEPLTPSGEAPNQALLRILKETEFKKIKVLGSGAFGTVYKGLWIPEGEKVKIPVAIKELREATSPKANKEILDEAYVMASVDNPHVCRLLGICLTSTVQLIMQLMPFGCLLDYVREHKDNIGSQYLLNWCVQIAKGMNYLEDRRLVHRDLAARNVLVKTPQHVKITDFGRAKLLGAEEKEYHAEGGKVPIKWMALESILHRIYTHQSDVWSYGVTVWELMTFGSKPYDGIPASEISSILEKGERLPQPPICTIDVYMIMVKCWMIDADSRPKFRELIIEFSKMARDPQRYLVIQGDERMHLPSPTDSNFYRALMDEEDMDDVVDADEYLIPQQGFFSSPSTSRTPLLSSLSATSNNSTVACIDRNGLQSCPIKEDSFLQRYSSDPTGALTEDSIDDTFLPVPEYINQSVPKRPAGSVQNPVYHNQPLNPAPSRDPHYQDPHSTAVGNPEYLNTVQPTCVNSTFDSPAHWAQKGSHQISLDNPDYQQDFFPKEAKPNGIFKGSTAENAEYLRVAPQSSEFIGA

Take `COc1cc(N2CCC3(CCN(C)CC3)CC2)ccc1Nc1ncc(Cl)c(Nc2ccc(F)cc2P(C)(C)=O)n1` [Compound 26, (2-((5-Chloro-2-((2-methoxy-4-(9-methyl-3,9-diazaspiro[5.5]undecan-3-yl)phenyl)amino)pyrimidin-4-yl)amino)-5-fluorophenyl)dimethyl phosphine oxide]: the Tumor volume in assay [1] (3 days) came to 235 mm^3; in assay [1] (6 days) it was 127 mm^3; in assay [1] (9 days), 84 mm^3; in assay [1] (12 days), 55 mm^3; in assay [1] (16 days) it was 46 mm^3; in assay [1] (19 days), 59 mm^3. The Tumor volume in assay [1] (23 days) is on record as 53 mm^3. The same compound yielded an IC50 in assay [2] of 1 to 100 nM.

With `CN1CCC2(CC1)CCN(c1ccc(Nc3ncc(Cl)c(Nc4ccccc4P(C)(C)=O)n3)c(OC(F)F)c1)CC2` [Compound 11, (2-((5-Chloro-2-((2-(difluoromethoxy)-4-(9-methyl-3,9-diazaspiro[5.5]undecan-3-yl)phenyl)amino)pyrimidin-4-yl)amino)phenyl)dimethyl phosphine oxide], the IC50 in assay [2] was 1 to 100 nM.

On to `COc1cc(N2CCC3(CCNCC3)CC2)ccc1Nc1ncc(Cl)c(Nc2ccccc2P(C)(C)=O)n1` [Compound 8, (2-((5-Chloro-2-((2-methoxy-4-(3,9-diazaspiro[5.5]undecan-3-yl)phenyl)amino)pyrimidin-4-yl)amino)phenyl)dimethyl phosphine oxide], for which the concentration for half-maximal inhibition (IC50) in assay [2] was in the range of 1 to 100 nM.

As for `C[C@@H](Oc1cc(-c2cnn(C3CCNCC3)c2)cnc1N)c1c(Cl)ccc(F)c1Cl` [Crizotinib, reference compound], the Tumor volume worked out at 297 mm^3 in assay [1] (3 days); 288 mm^3 in assay [1] (6 days); 311 mm^3 in assay [1] (9 days); 340 mm^3 in assay [1] (12 days); 413 mm^3 in assay [1] (16 days); 419 mm^3 in assay [1] (19 days). Besides, the Tumor volume is 439 mm^3 in assay [1] (23 days); 502 mm^3 in assay [3] (0 day); 708 mm^3 in assay [3] (3 days); 828 mm^3 in assay [3] (7 days); 1002 mm^3 in assay [3] (10 days); 1116 mm^3 in assay [3] (13 days). Also, the Tumor volume in assay [3] (17 days) is listed as 1415 mm^3; in assay [3] (19 days), 1488 mm^3.

`COc1cc(N2CCC3(CC2)CNC3)ccc1Nc1ncc(Cl)c(Nc2ccccc2P(C)(C)=O)n1` [Compound 4, (2-((5-Chloro-2-((2-methoxy-4-(2,7-diazaspiro[3.5]nonan-7-yl)phenyl)amino)pyrimidin-4-yl)amino)phenyl)dimethyl phosphine oxide] registered an IC50 in assay [2] of 1 to 100 nM.

Take `COc1cc(N2CCC3(CCN(C)CC3)CC2)ccc1Nc1ncc(Cl)c(Nc2c(F)cccc2P(C)(C)=O)n1` [Compound 25, (2-((5-Chloro-2-((2-methoxy-4-(9-methyl-3,9-diazaspiro[5.5]undecan-3-yl)phenyl)amino)pyrimidin-4-yl)amino)-3-fluorophenyl)dimethyl phosphine oxide]: the IC50 in assay [2] is 101 to 1000 nM.

In assay [2], `COc1cc(N2CCC3(CCN(C)CC3)CC2)c(F)cc1Nc1ncc(Cl)c(Nc2ccccc2P(C)(C)=O)n1` [Compound 20, (2-((5-Chloro-2-((5-fluoro-2-methoxy-4-(9-methyl-3,9-diazaspiro[5.5]undecan-3-yl)phenyl)amino)pyrimidin-4-yl)amino)phenyl)dimethyl phosphine oxide] registered a half-inhibitory concentration (IC50) of 1 to 100 nM.

`COc1cc(N2CCC3(CNC3)C2)ccc1Nc1ncc(Cl)c(Nc2ccccc2P(C)(C)=O)n1` [Compound 6, (2-((5-Chloro-2-((2-methoxy-4-(2,6-diazaspiro[3.4]octan-6-yl)phenyl)amino)pyrimidin-4-yl)amino)phenyl)dimethyl phosphine oxide]: in assay [2], the IC50 was in the range of 1 to 100 nM.

`COc1cc(N2CCC3(CCN(C)CC3)CC2)c(C)cc1Nc1ncc(Cl)c(Nc2ccccc2P(C)(C)=O)n1` [Compound 23, (2-((5-Chloro-2-((2-methoxy-5-methyl-4-(9-methyl-3,9-diazaspiro[5.5]undecan-3-yl)phenyl)amino)pyrimidin-4-yl)amino)phenyl)dimethyl phosphine oxide]: the IC50 in assay [2] lay in the range of 1 to 100 nM.

Regarding `COc1cc(N2CCC3(CCN(C)CC3)CC2)c(Cl)cc1Nc1ncc(Cl)c(Nc2ccccc2P(C)(C)=O)n1` [Compound 22, (2-((5-Chloro-2-((5-chloro-2-methoxy-4-(9-methyl-3,9-diazaspiro[5.5]undecan-3-yl)phenyl)amino)pyrimidin-4-yl)amino)phenyl)dimethyl phosphine oxide], the Tumor volume in assay [1] (3 days) worked out at 234 mm^3; in assay [1] (6 days), 137 mm^3; in assay [1] (9 days) it was 90 mm^3; in assay [1] (12 days), 68 mm^3; in assay [1] (16 days), 46 mm^3; in assay [1] (19 days), 54 mm^3. In assay [1] (23 days), this compound showed a Tumor volume of 41 mm^3. Also, in assay [2], the half-inhibitory concentration (IC50) is 1 to 100 nM.

`COc1cc(N2CCC3(CCN(C)CC3)CC2)ccc1Nc1ncc(Cl)c(Nc2ccccc2P(C)(C)=S)n1` [Compound 12, 5-Chloro-N^4-(2-(dimethylphosphorothioyl)phenyl)-N^2-(2-methoxy-4-(9-methyl-3,9-diazaspiro[5.5]undecan-3-yl)phenyl)pyrimidine-2,4-diamine]: the Tumor volume in assay [1] (3 days) came out at 199 mm^3; in assay [1] (6 days), 97 mm^3; in assay [1] (9 days), 90 mm^3; in assay [1] (12 days) it was 58 mm^3; in assay [1] (16 days) it was 49 mm^3; in assay [1] (19 days), 42 mm^3. Further, the Tumor volume in assay [1] (23 days) is 32 mm^3. Further, the IC50 in assay [2] fell in the range of 1 to 100 nM.

On to `COc1cc(N2CCC3(CCNC3)CC2)ccc1Nc1ncc(Cl)c(Nc2ccccc2P(C)(C)=O)n1` [Compound 3, (2-((5-Chloro-2-((2-methoxy-4-(2,8-diazaspiro[4.5]decan-8-yl)phenyl)amino)pyrimidin-4-yl)amino)phenyl)dimethylphosphine oxide], for which the concentration for half-maximal inhibition (IC50) in assay [2] was 1 to 100 nM.
